According to patent US8669072B2, “Oxadiazoline ligands for modulating the expression of exogenous genes via an ecdysone receptor complex” (Intrexon Corporation, priority 2003, dated 2014):
Where two headings read alike, the source gives them in different places.

Key:
[1] = target: T1, GAL4 DBD-CfEcR(DEF)/VP16AD-MmRXRE (Choristoneura fumiferana, UniProt O77240); test: 13B3 assay: luciferase reporter gene induction in stable CHO clone 13B3; format: cell-based; settings: for fold induction at 33.3 µM: 48 h, read-out: Fold Induction Average, 13B3 assay; for Rel Max FI, 13B3 assay: maximum fold induction relative to that of GS-E ligand
T1 construct: The wild-type D, E, and F domains from spruce budworm Choristoneura fumiferana EcR (“CfEcR-DEF”)
How it was run: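 Stable CHO clone 13B3 co-expressing GAL4 DBD-CfEcR(DEF) and VP16AD-MmRXRE with a GAL4 RE-luciferase reporter; ligands from DMSO stocks diluted 300-fold. Luciferase read by luminescence 48 h after treatment, duplicate wells averaged. Fold induction = RLU treated/RLU DMSO; EC50 from three-parameter logistic fit.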

[2] = target: T2, GAL4 DBD (1-147)-CfEcR(DEF)/VP16AD-βRXREF-LmUSPEF (Choristoneura fumiferana, UniProt O77240); test: cell-based; settings: for fold induction at 33.3 µM: 48 h, read-out: Fold Induction Average, 27-63 assay; for Rel Max FI, 27-63 assay: maximum fold induction relative to that of GS-E ligand
T2 construct: The wild-type D, E, and F domains from spruce budworm Choristoneura fumiferana EcR (“CfEcR-DEF”)
How it was run: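 CHO clone stably carrying the GAL4-DBD–spruce budworm EcR(DEF) and VP16–RXR/USP chimeric receptor with a GAL4-responsive luciferase reporter; ligand added from DMSO stock diluted 300-fold.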

Bombyx mori EcR (VBE) = target: T3, Bombyx mori EcR (VBE) (Bombyx mori, UniProt P49881); test: Z3 assay: β-galactosidase reporter gene induction in HEK-293 clone Z3 (CVBE / 6XEcRE LacZ); format: cell-based; settings: for fold induction at 33 µM: HEK293, 48 h, read-out: Fold Induction Average, Z3 assay; for Rel Max FI, Z3 assay: maximum fold induction relative to that of GS-E ligand
T3 construct: expressed in transfected cells; host or cells: Human HEK-293 cells, retrovirally infected, clone Z3
T3 sequence (P49881 86-606 limits assumed): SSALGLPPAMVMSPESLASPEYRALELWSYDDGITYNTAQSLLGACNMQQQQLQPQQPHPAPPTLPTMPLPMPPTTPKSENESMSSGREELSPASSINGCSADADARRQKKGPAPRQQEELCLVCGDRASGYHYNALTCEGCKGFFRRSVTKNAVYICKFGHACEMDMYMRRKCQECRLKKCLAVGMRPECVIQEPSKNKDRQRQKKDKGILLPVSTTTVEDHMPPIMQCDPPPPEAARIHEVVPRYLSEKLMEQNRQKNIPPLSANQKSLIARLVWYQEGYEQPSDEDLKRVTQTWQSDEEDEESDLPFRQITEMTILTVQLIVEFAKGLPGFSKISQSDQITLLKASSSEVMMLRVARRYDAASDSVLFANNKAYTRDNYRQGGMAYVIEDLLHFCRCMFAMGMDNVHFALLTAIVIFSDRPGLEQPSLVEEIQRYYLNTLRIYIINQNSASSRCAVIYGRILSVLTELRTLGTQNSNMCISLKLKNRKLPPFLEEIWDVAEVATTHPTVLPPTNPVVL
T3 sequence (P19793 1-462 partner): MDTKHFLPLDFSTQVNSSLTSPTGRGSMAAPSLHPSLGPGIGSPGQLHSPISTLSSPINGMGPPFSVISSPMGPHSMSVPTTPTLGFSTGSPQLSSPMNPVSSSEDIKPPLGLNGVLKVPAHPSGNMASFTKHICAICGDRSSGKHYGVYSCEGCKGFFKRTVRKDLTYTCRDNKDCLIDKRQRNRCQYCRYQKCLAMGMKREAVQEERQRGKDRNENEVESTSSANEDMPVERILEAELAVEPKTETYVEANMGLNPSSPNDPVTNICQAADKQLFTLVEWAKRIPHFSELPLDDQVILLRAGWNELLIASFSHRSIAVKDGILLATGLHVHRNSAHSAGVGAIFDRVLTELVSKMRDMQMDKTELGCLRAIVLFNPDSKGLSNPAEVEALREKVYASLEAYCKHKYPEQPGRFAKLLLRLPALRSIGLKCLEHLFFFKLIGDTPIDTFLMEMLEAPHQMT

[3] = target: CfEcR (CDEF)/CfUSP, GST fusion protein (Choristoneura fumiferana, UniProt O77240); test: CfEcR (CDEF)/CfUSP GST fusion protein assay; format: binding
Sequence of CfEcR (CDEF)/CfUSP, GST fusion protein (O77240 entry or part of it): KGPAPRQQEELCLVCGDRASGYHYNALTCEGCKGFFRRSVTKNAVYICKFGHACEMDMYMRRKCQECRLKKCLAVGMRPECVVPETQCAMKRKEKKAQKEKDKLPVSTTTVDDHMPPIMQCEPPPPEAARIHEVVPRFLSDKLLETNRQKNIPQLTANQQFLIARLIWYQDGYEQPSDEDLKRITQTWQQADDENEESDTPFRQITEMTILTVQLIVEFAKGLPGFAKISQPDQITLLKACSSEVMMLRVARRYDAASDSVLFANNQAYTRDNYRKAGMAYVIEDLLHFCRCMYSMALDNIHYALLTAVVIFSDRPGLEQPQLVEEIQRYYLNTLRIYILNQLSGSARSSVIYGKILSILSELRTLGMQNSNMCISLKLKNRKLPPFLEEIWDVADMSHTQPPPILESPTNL
Sequence of CfEcR (CDEF)/CfUSP, GST fusion protein (O76202 whole entry, further chain, the tested form may be a part): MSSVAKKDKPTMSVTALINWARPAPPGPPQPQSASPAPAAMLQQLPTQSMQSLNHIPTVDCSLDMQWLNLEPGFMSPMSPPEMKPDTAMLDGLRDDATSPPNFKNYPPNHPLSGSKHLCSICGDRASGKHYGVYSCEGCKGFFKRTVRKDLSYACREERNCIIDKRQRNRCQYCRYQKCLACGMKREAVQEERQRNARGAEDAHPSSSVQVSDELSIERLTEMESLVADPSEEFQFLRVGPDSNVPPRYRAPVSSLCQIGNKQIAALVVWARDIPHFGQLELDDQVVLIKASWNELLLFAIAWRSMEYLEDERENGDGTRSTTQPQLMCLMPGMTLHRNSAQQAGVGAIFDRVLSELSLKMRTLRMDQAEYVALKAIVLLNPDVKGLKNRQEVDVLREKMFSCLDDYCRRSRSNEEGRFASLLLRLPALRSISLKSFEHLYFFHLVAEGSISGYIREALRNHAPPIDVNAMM

[4] = test system: MTA (two-spotted spider mite); test: Insect toxicity contact bioassay, MTA; format: in vivo; settings: for Insect Toxicity LC50, MTA: in vivo
Method: (§1) The compound to be evaluated was dissolved in an appropriate solvent, usually a mix of acetone, methanol, and water. Test solutions were made by serial dilution of a stock test solution with acetone, methanol, and water. Initial evaluations were made at one or more concentrations on one or more of the following insects:
(§2) Contact bioassays (green peach aphid, two-spotted spider mite, white fly) were conducted by applying a solution of the test compound to the inside surface of a Petri dish. The solution was allowed to air-dry, then each dish was infested and the larvae from each treatment were transferred to a bioassay tray. The trays were held for one to seven days, and the mortality rating was determined for each treatment.

Beet Armyworm = test: Insect toxicity feeding bioassay, BAW; format: in vivo; settings: for Insect Toxicity LC50, BAW: in vivo
Method: as §1
(§3) Feeding bioassays were conducted in bioassay trays containing insect diet. Treatments were made by applying 50 μL of test solution to the surface of the diet in each of 5 wells. After the test solution dried, each well was infested with a single neonate larva. The trays were held for six days and then the mortality rating was determined for each treatment.

Cabbage Looper = test: Insect toxicity feeding bioassay, CL; format: in vivo; settings: for Insect Toxicity LC50, CL: in vivo
Method: as §1, §3

Tobacco Budworm = test: Insect toxicity bioassay, TBW; format: in vivo; settings: for Insect Toxicity LC50, TBW: in vivo
Method: as §1, §3
Some of the tobacco budworm tests were conducted as follows. A test solution containing 600 ppm was made by dissolving a compound of the invention in a 1:1 acetone:methanol solution, then adding water to give a 5:5:90 acetone:methanol:water solution, and finally a surfactant was added at an equivalent of 7.37 g of surfactant per 100 L of test solution (1 ounce of surfactant per 100 gallons of test solution). Appropriate dilutions were prepared in water from the 600 ppm solution. A detached cotton leaf, Gossypium hirsutum was placed on moistened filter paper in a Petri dish (100×20 mms). The leaf was sprayed with the test solution using a rotating turntable sprayer and allowed to dry. The dish was infested with 10 first instar larvae of the tobacco budworm and covered with the lid. If the larvae were alive two days after treatment, fresh untreated cotton leaves were added. All treatments were maintained at 23.9-26.7° C. (75-80° F.) under fluorescent light in a well-ventilated room. Percent mortality was determined at four days after treatment.

WFN (white fly) = test: Insect toxicity contact bioassay, WFN; format: in vivo; settings: for Insect Toxicity LC50, WFN: in vivo
Method: as §1, §2

Plodia = Plodia EC50; format: cell-based
Kc = Kc EC50; format: cell-based
[5] = GST fusion protein, read-out: CfEcR EC50

Compound	EC50 [1] [µM]	fold induction at 33.3 µM [1]	Rel Max FI, 13B3 assay [1]	EC50 [2] [µM]	fold induction at 33.3 µM [2]	Rel Max FI, 27-63 assay [2]	EC50 (Bombyx mori EcR (VBE)) [µM]	fold induction at 33 µM (Bombyx mori EcR (VBE))	Rel Max FI, Z3 assay (Bombyx mori EcR (VBE))	Insect Toxicity LC50, MTA [4] [ppm]	Insect Toxicity LC50, BAW (Beet Armyworm) [ppm]	Insect Toxicity LC50, CL (Cabbage Looper) [ppm]	Insect Toxicity LC50, TBW (Tobacco Budworm) [ppm]	Insect Toxicity LC50, WFN (WFN (white fly)) [ppm]	Insect Toxicity % control @ 150 ppm, MTA [4] [% @ 150]	Insect Toxicity % control @ 150 ppm, WFN (WFN (white fly)) [% @ 150]	EC50 [3] [µM]	also measured
CCc1ccc(C(=O)NN2C(c3ccccc3)=NOC23CCCC3)cc1 [RG-120125]	> 33.3	82.6	0.16	~20	510	0.27	10	254	0.67	167	98	23	>150	150	–	–	–	EC50 [3, 5]: 0.0579 µM
CCc1c(OC)cccc1C(=O)NN1C(c2cc(C)cc(C)c2)=NOC1(C)C [RG-120080, N-[3-(3,5-dimethyl-phenyl)-5,5-dimethyl-[1,2,4]oxadiazol-4-yl]-2-ethyl-3-methoxy-benzamide]	12.3	717	1.04	8.35	–	1.29	3.95	310	0.71	–	23	47	>150	–	0	0	–	Kd [3]: 0.0119 µM
CCc1c(OC)cccc1C(=O)NN1C(c2ccccc2)=NOC1(C)CC (centres unmarked) [RG-120076]	> 33.3	20.2	0.05	~20	4090	1.4	12.4	0.2	0.9	92	47	47	>150	>150	–	–	0.00835	–
COc1cccc(C(=O)NN2C(c3ccccc3)=NOC2(C)C)c1C [RG-120042, N-(5,5-dimethyl-3-phenyl-[1,2,4]oxadiazol-4-yl)-3-methoxy-2-methyl-benzamide]	–	3.3	–	> 33	–	0	–	19.3	–	–	–	–	–	–	–	–	–	EC50 (Plodia): 0.481 µM; EC50 (Kc): 29 µM; melting point: 141 to 142 °C
CCc1ccc(C(=O)NN2C(c3cc(C)cc(C)c3)=NOC2(C)C)cc1 [RG-120060]	–	16.8	–	> 33	–	0.01	–	108	–	–	23	47	>150	–	0	0	–	Kd ([3]; GST fusion protein, read-out: CfEcR Kd): 0.038 µM
CCOC(=O)CCC(=O)NN1C(c2cc(C)cc(C)c2)=NOC1(C)CC (centres unmarked) [RG-120126]	> 33.3	0.4	0	–	–	–	> 50	2.4	0.04	–	–	–	–	–	0	79	–	EC50 [3, 5]: 0.136 µM; Insect Toxicity % control @ 150 ppm, BAW (Beet Armyworm; 150 ppm): 0% @ 150; Insect Toxicity % control @ 150 ppm, CL (Cabbage Looper; 150 ppm): 0% @ 150; Insect Toxicity % control @ 150 ppm, TBW (Tobacco Budworm; 150 ppm): 0% @ 150
CCc1ccc(C(=O)NN2C(c3cc(C)cc(C)c3)=NOC2(C)CC)cc1 (centres unmarked) [RG-120128]	–	129	–	~20	338	0.18	–	403	–	>150	47	17	>150	>150	–	–	0.0285	–
CCc1c(OC)cccc1C(=O)NN1C(c2cc(C)cc(C)c2)=NOC1(C)CC (centres unmarked) [RG-120069]	2.95	478	1.02	3.31	1870	1.11	1.68	–	0.8	146	4.7	4.7	>150	>150	–	–	0.0142	–
